Data as given in patent publication EP0256125A1, “MEANS FOR PREVENTING MICROBIOLOGICAL OVERGROWING OF HARD SURFACE” (priority 1985, dated 1987).

Assays:
[1] = Solubility in solvents (qualitative)
weißen Mäusen = experiment: Acute toxicity in white mice; conditions: result in words
[2] = Acute toxicity in white mice; conditions: mouse, in vivo, ip
[3] = Storage stability (qualitative); type: physicochemical; conditions: result in words
Cladosporium resinae = experiment: Fungicidal activity, inhibition of mycelium growth on wort agar; type: cell-based
Excerpt: (§1) Man prüfte die funguzide Aktivität von Zink-bis-(N-vi- nyloxyethyl)dithiocarbamat gegenüber den reinen Pilzkulturen: Gladosporium resinae, Cladosporium cladosporioides, Acremonium corvum, Acremonium charticola, Penicillium charlesii Smith, Walrotiela subiculesa, Geotrichum candidum Link, Oidium, Penicillium crysogenum. Die genannten Pilze wurden von den Oberflächen der Wände und Decken von Bierbrauereien und Werken für die Herstellung von alkoholfreien Getränken ausgeschieden.
(§2) […] In eine der Petri-Schalen wurde Nährboden mit 1 ml Azeton (Kontrolle) gegossen.
(§3) In 18 bis 20 Stunden nach dem Vergießen des Nährbodens in die Petri-Schalen führte man die Inokulation der reinen Pilzkultur durch, die vorher an einem Schräg-Würzeagar während 15 Tage gezüchtet wurden. Die Inkubation führte man bei einer Temperatur von 25 bis 27°C während 5 Tage durch. Danach wurde der Durchmesser der Pilzkolonien gemessen und der Prozentsatz der Hemmung des Wachstums des Myzeliums (S) nach der Abbott -Formel gezählt: [formula] worin dc Durchmesser der Pilzkolonien in Kontrolle ist, de =Durchmesser der Pilzkolonien in einer Schale mit dem Nährboden ist, der Zink-bis-(N-vinyloxyethyl)dithiocarbamat enthält.

Acremonium charticola = experiment: as above; type: cell-based
Excerpt: as §1, §2, §3

[4] = test system: Cladosporium cladosporioides; experiment: as above; type: cell-based
Excerpt: as §1, §2, §3

Oidium = experiment: as above; type: cell-based
Excerpt: as §1, §2, §3

Geotrichum candidum Link = experiment: as above; type: cell-based
Excerpt: as §1, §2, §3

Penicillium chrysogenum = experiment: as above; type: cell-based
Excerpt: as §1, §2, §3

Acremonium corvum = experiment: as above; type: cell-based
Excerpt: as §1, §2, §3

[5] = test system: Penicillium charlesii Smith; experiment: as above; type: cell-based
Excerpt: as §1, §2, §3

Walrotiela subiculesa = experiment: as above; type: cell-based
Excerpt: as §1, §2, §3

[6] = prior art statement; cited from earlier work
[7] = Konzentration des Stoffes 0,0015 %
[8] = Konzentration des Stoffes 0,003 %
[9] = Konzentration des Stoffes 0,006 %
[10] = Konzentration des Stoffes 0,012 %

In the case of `C=COCCNC(=S)[S-].[Na+]` [Natrium-N-(vinyloxyethyl)dithiocarbamat], the “Löslichkeit im Alkohol” value ([1]; Alkohol (Ethylalkohol)) is reported as “teilweise”, the “Löslichkeit im Azeton” value ([1]; Azeton) is reported as “teilweise” and the “Löslichkeit im Diethylether” value ([1]; Diethylether) is reported as “unlöslich”. The “Löslichkeit in Wasser” value ([1]; Wasser) was “gut löslich”, the “Toxizität für Warmblüter” value (weißen Mäusen) was “wenig toxisch” and the LD50 [2] was 260 mg/kg. For the same compound, the Lagerbeständigkeit [3] was “lagerbeständig”, the “Hemmung des Myzeliums am 5. Tag des Wachstums, Cladosporium resinae” value (Cladosporium resinae; [7]) was 100% and the “Hemmung des Myzeliums am 5. Tag des Wachstums, Cladosporium resinae” value (Cladosporium resinae; [8]) was 100%. The “Hemmung des Myzeliums am 5. Tag des Wachstums, Cladosporium resinae” value (Cladosporium resinae; [9]) was 100%, the “Hemmung des Myzeliums am 5. Tag des Wachstums, Cladosporium resinae” value (Cladosporium resinae; [10]) was 100% and the “Hemmung des Myzeliums am 5. Tag des Wachstums, Acremonium charticola” value (Acremonium charticola; [7]) was 100%. The “Hemmung des Myzeliums am 5. Tag des Wachstums, Acremonium charticola” value (Acremonium charticola; [8]) was 100%, the “Hemmung des Myzeliums am 5. Tag des Wachstums, Acremonium charticola” value (Acremonium charticola; [9]) was 100% and the “Hemmung des Myzeliums am 5. Tag des Wachstums, Acremonium charticola” value (Acremonium charticola; [10]) was 100%. The “Hemmung des Myzeliums am 5. Tag des Wachstums, Cladosporium cladosporioides” value [4, 7] was 100%, the “Hemmung des Myzeliums am 5. Tag des Wachstums, Cladosporium cladosporioides” value [4, 8] was 100% and the “Hemmung des Myzeliums am 5. Tag des Wachstums, Cladosporium cladosporioides” value [4, 9] was 100%. The “Hemmung des Myzeliums am 5. Tag des Wachstums, Cladosporium cladosporioides” value [4, 10] was 100%, the “Hemmung des Myzeliums am 5. Tag des Wachstums, Oidium” value (Oidium; [7]) was 60% and the “Hemmung des Myzeliums am 5. Tag des Wachstums, Oidium” value (Oidium; [8]) was 100%. For the same compound, the “Hemmung des Myzeliums am 5. Tag des Wachstums, Oidium” value (Oidium; [9]) was 100%, the “Hemmung des Myzeliums am 5. Tag des Wachstums, Oidium” value (Oidium; [10]) was 100% and the “Hemmung des Myzeliums am 5. Tag des Wachstums, Geotrichum candidum Link” value (Geotrichum candidum Link; [7]) was 5%. For the same compound, the “Hemmung des Myzeliums am 5. Tag des Wachstums, Geotrichum candidum Link” value (Geotrichum candidum Link; [8]) was 40%, the “Hemmung des Myzeliums am 5. Tag des Wachstums, Geotrichum candidum Link” value (Geotrichum candidum Link; [9]) was 75% and the “Hemmung des Myzeliums am 5. Tag des Wachstums, Geotrichum candidum Link” value (Geotrichum candidum Link; [10]) was 100%. The “Hemmung des Myzeliums am 5. Tag des Wachstums, Penicillium chrysogenum” value (Penicillium chrysogenum; [7]) was 5%, the “Hemmung des Myzeliums am 5. Tag des Wachstums, Penicillium chrysogenum” value (Penicillium chrysogenum; [8]) was 20% and the “Hemmung des Myzeliums am 5. Tag des Wachstums, Penicillium chrysogenum” value (Penicillium chrysogenum; [9]) was 80%. The “Hemmung des Myzeliums am 5. Tag des Wachstums, Penicillium chrysogenum” value (Penicillium chrysogenum; [10]) was 100%, the “Hemmung des Myzeliums am 5. Tag des Wachstums, Acremonium corvum” value (Acremonium corvum; [7]) was 100% and the “Hemmung des Myzeliums am 5. Tag des Wachstums, Acremonium corvum” value (Acremonium corvum; [8]) was 100%. For the same compound, the “Hemmung des Myzeliums am 5. Tag des Wachstums, Acremonium corvum” value (Acremonium corvum; [9]) was 100%, the “Hemmung des Myzeliums am 5. Tag des Wachstums, Acremonium corvum” value (Acremonium corvum; [10]) was 100% and the “Hemmung des Myzeliums am 5. Tag des Wachstums, Penicillium charlesii Smith” value [5, 7] was 25%. The “Hemmung des Myzeliums am 5. Tag des Wachstums, Penicillium charlesii Smith” value [5, 8] was 40%, the “Hemmung des Myzeliums am 5. Tag des Wachstums, Penicillium charlesii Smith” value [5, 9] was 90% and the “Hemmung des Myzeliums am 5. Tag des Wachstums, Penicillium charlesii Smith” value [5, 10] was 100%. For the same compound, the “Hemmung des Myzeliums am 5. Tag des Wachstums, Walrotiela subiculesa” value (Walrotiela subiculesa; [7]) was 100%, the “Hemmung des Myzeliums am 5. Tag des Wachstums, Walrotiela subiculesa” value (Walrotiela subiculesa; [8]) was 100% and the “Hemmung des Myzeliums am 5. Tag des Wachstums, Walrotiela subiculesa” value (Walrotiela subiculesa; [9]) was 100%. For the same compound, the “Hemmung des Myzeliums am 5. Tag des Wachstums, Walrotiela subiculesa” value (Walrotiela subiculesa; [10]) was 100%.

In the case of `CCCCCCCCn1sccc1=O` [2-n-Oktyl-4-isothiazolinon-3], the “effektive Konzentration als Biozid für Lack- und Farbstoffe” value [6] is listed as 0,4 Masse%.
